Source: US8834843B2, “Imaging method” (GE Healthcare Limited, priority 2007, dated 2014)
Like-named read-outs stand apart in the source and are kept apart here. Numbered stars: 1 amine (or outer) side, 2 acyl side, 3 side chain; on linkers, the order of the positions; unused ones are H or OH. Bridge positions count the residues as written; N and C are the ends. Side chains are listed from the residue outwards. Peptide text beside a SMILES is read from it. * marks the point of attachment. X1 = C/C(=N\O)C(C)(C)NCCC(CCNC(C)(C)/C(C)=N/O)CCN*; Glutaryl = O=C(CCCC(=O)[*:2])[*:1]; X2 = NC(=O)COCC(=O)NCCOCCOCCOCCN*

Experiment: Biodistribution in BDL rats with and without excess cold compound
Format: in vivo
Conditions: male, Sprague Dawley, rat, iv, total radioactivity, BDL rats, 15 days post-op, 1 hour post-injection; for dose excreted at 1 h: bile and urine
Protocol: On the appropriate day post surgery BDL and sham animals were removed and put under isoflurane anaesthesia, then each animal was injected with 0.3 ml intravenously (i.v.) via tail vein (˜3MBq). At the appropriate time point post-injection of the test item, each animal was re-anaesthetised with isoflurane, sacrificed by cervical dislocation weighed and the weight recorded via a barcode scanning system. Each animal was dissected and the following organs and tissues were removed and counted using BASIL counter protocol 40 or manual counting:
The recorded activity in a whole organ (e.g., liver) was corrected for background radioactivity and for radioactive decay and the biodistribution of radioactivity calculated by reference to Formula I:
[formula] where: • A=counts per second measured in organ • B=total counts per second measured in all samples (excluding the injection site)
The percentage of injected radioactivity in the weighed tissue samples (e.g., blood) was calculated to give % i.d. in the entire tissue by reference to Formula 2:
[formula] where: • Zs=counts per second in sample • Ws=weight of sample in grams • Wb=weight of animal in grams immediately after sacrifice • B=total counts per second measured in all the samples (excluding the injection site) • F=tissue specific factor representing the mass of the tissue as a proportion of the total body weight of the animal
The biodistribution of radioactivity was investigated in 15 days post-operatively in BDL and sham-operated male Sprague Dawley rats (procedures described in Example 3) 1 hour following of intravenous injection via tail vein of ˜3 MBq of Compound 8, both before and after addition of 1:100 and 1:10,000 fold excess of cold Compound 8. At the appropriate time point post-injection of the test Item, each animal was re-anaesthetised with isoflurane, sacrificed by cervical dislocation and weighed. Each animal was dissected and organs and tissues (see Tables 5 and 6 below) were removed and counted using BASIL counter protocol 40 or manual counting.

With C/C(=N\O)C(C)(C)NCCC(CCNC(=O)CCCC(=O)NCCCC[C@@H]1NC(=O)CSC[C@@H](C(=O)NCCOCCOCCOCCNC(=O)COCC(N)=O)NC(=O)[C@H](Cc2ccccc2)NC(=O)[C@@H]2CSSC[C@H](NC1=O)C(=O)N[C@@H](CCCNC(=N)N)C(=O)NCC(=O)N[C@@H](CC(=O)O)C(=O)N2)CCNC(C)(C)/C(C)=N/O (stereo partly drawn) [Compound 8] ({CH2CO}-K([Glutaryl-X1])CRGDCFC-X2; disulfide 2-6; thioether N-8) the dose excreted at 1 h (3 MBq, 10K-fold excess cold Compound 8) was 41.6%, the dose excreted at 1 h (3 MBq, 100-fold excess cold Compound 8) was 38.3% and the dose excreted at 1 h (3 MBq, no excess) was 41%. The tissue uptake dose at 1 h (blood, 10K-fold excess cold Compound 8, read-out: Activity in Blood, Mean) was 1.6 %ID, the tissue uptake dose at 1 h (blood, 100-fold excess cold Compound 8, read-out: Activity in Blood, Mean) was 1.61 %ID and the tissue uptake dose at 1 h (blood, no excess, read-out: Activity in Blood, Mean) was 1.47 %ID. It also gave a tissue uptake dose at 1 h (bone, 10K-fold excess cold Compound 8, read-out: Activity in Bone, Mean) of 3.18 %ID, a tissue uptake dose at 1 h (bone, 100-fold excess cold Compound 8, read-out: Activity in Bone, Mean) of 2.97 %ID and a tissue uptake dose at 1 h (bone, no excess, read-out: Activity in Bone, Mean) of 3.02 %ID. It also gave a tissue uptake dose at 1 h (carcass, 10K-fold excess cold Compound 8, read-out: Activity in Carcass, Mean) of 6.14 %ID, a tissue uptake dose at 1 h (carcass, 100-fold excess cold Compound 8, read-out: Activity in Carcass, Mean) of 6.47 %ID and a tissue uptake dose at 1 h (carcass, no excess, read-out: Activity in Carcass, Mean) of 4.36 %ID. The tissue uptake dose at 1 h (heart, 10K-fold excess cold Compound 8, read-out: Activity in Heart, Mean) was 0.14 %ID, the tissue uptake dose at 1 h (heart, 100-fold excess cold Compound 8, read-out: Activity in Heart, Mean) was 0.13 %ID and the tissue uptake dose at 1 h (heart, no excess, read-out: Activity in Heart, Mean) was 0.13 %ID. The tissue uptake dose at 1 h (injection site, 10K-fold excess cold Compound 8, read-out: Activity in Injection Site, Mean) was 1.68 %ID, the tissue uptake dose at 1 h (injection site, 100-fold excess cold Compound 8, read-out: Activity in Injection Site, Mean) was 1.75 %ID and the tissue uptake dose at 1 h (injection site, no excess, read-out: Activity in Injection Site, Mean) was 1.32 %ID. It also gave a tissue uptake dose at 1 h (kidneys, 3 MBq, 10K-fold excess cold Compound 8, read-out: Activity in Kidneys, Mean) of 3.61 %ID, a tissue uptake dose at 1 h (kidneys, 3 MBq, 100-fold excess cold Compound 8, read-out: Activity in Kidneys, Mean) of 4.2 %ID and a tissue uptake dose at 1 h (kidneys, no excess, read-out: Activity in Kidneys, Mean) of 3.78 %ID. The tissue uptake dose at 1 h (liver, 10K-fold excess cold Compound 8, read-out: Activity in Liver, Mean) was 9.81 %ID, the tissue uptake dose at 1 h (liver, 100-fold excess cold Compound 8, read-out: Activity in Liver, Mean) was 16.1 %ID and the tissue uptake dose at 1 h (liver, no excess, read-out: Activity in Liver, Mean) was 12.7 %ID. For the same compound, the tissue uptake dose at 1 h (lung, 10K-fold excess cold Compound 8, read-out: Activity in Lung, Mean) was 0.5 %ID, the tissue uptake dose at 1 h (lung, 100-fold excess cold Compound 8, read-out: Activity in Lung, Mean) was 0.5 %ID and the tissue uptake dose at 1 h (lung, no excess, read-out: Activity in Lung, Mean) was 0.43 %ID. It also gave a tissue uptake dose at 1 h (muscle, 10K-fold excess cold Compound 8, read-out: Activity in Muscle, Mean) of 9.61 %ID, a tissue uptake dose at 1 h (muscle, 100-fold excess cold Compound 8, read-out: Activity in Muscle, Mean) of 8.76 %ID and a tissue uptake dose at 1 h (muscle, no excess, read-out: Activity in Muscle, Mean) of 10.8 %ID. The tissue uptake dose at 1 h (skin, 10K-fold excess cold Compound 8, read-out: Activity in Skin, Mean) was 13 %ID, the tissue uptake dose at 1 h (skin, 100-fold excess cold Compound 8, read-out: Activity in Skin, Mean) was 12 %ID and the tissue uptake dose at 1 h (skin, no excess, read-out: Activity in Skin, Mean) was 12.6 %ID. For the same compound, the tissue uptake dose at 1 h (small and large intestine, 10K-fold excess cold Compound 8, read-out: Activity in Small & Large Intestine, Mean) was 8.58 %ID, the tissue uptake dose at 1 h (small and large intestine, 100-fold excess cold Compound 8, read-out: Activity in Small & Large Intestine, Mean) was 7.41 %ID and the tissue uptake dose at 1 h (small and large intestine, no excess, read-out: Activity in Small & Large Intestine, Mean) was 8.32 %ID. For the same compound, the tissue uptake dose at 1 h (spleen, 10K-fold excess cold Compound 8, read-out: Activity in Spleen, Mean) was 0.52 %ID, the tissue uptake dose at 1 h (spleen, 100-fold excess cold Compound 8, read-out: Activity in Spleen, Mean) was 0.57 %ID and the tissue uptake dose at 1 h (spleen, no excess, read-out: Activity in Spleen, Mean) was 0.51 %ID. For the same compound, the tissue uptake dose at 1 h (stomach, 10K-fold excess cold Compound 8, read-out: Activity in Stomach, Mean) was 1.69 %ID, the tissue uptake dose at 1 h (stomach, 100-fold excess cold Compound 8, read-out: Activity in Stomach, Mean) was 0.96 %ID and the tissue uptake dose at 1 h (stomach, no excess, read-out: Activity in Stomach, Mean) was 0.89 %ID. The tissue uptake dose at 1 h (thyroid, 10K-fold excess cold Compound 8, read-out: Activity in Thyroid, Mean) was 0.06 %ID, the tissue uptake dose at 1 h (thyroid, 100-fold excess cold Compound 8, read-out: Activity in Thyroid, Mean) was 0.04 %ID and the tissue uptake dose at 1 h (thyroid, no excess, read-out: Activity in Thyroid, Mean) was 0.04 %ID.
